{"source": "paper PMC3897212", "about": "(Journal of pharmacokinetics and pharmacodynamics, 2013)", "key": {"CYP3A": {"system": "CYP3A", "conditions": "cited from earlier work"}, "[1]": {"conditions": "mice; owing to ABCB1- and ABCB2-mediated efflux; cited from earlier work"}, "[2]": {"assay": "Mouse PBPK model of lapatinib"}, "[3]": {"system": "brain metastases from HER2-positive breast cancer", "conditions": "human patients with brain metastases from HER2-positive breast cancer; cited from earlier work"}, "[4]": {"assay": "Human PBPK model of lapatinib"}, "[5]": {"conditions": "human plasma, cited from earlier work"}, "[6]": {"assay": "Single 100 mg dose plasma pharmacokinetic study in healthy subjects", "assay_type": "in vivo", "conditions": "human, po"}, "[7]": {"system": "metastatic breast cancer cells in the brains of mice", "conditions": "cited from earlier work"}, "[8]": {"system": "albumin and alpha-1 acid glycoprotein", "conditions": "cited from earlier work"}, "[9]": {"assay": "Time course tissue distribution / pharmacokinetic study in mice", "assay_type": "in vivo, female FVB mice", "conditions": "mouse; for AUC(0-t) / half-life: female, FVB, po"}, "[10]": {"conditions": "patients administered lapatinib; cited from earlier work"}, "[11]": {"conditions": "first-order, parameter estimate (CV%) fitted to 60 mg/kg cohort"}, "[12]": {"conditions": "parameter estimate (CV%) fitted to 60 mg/kg cohort"}, "[13]": {"conditions": "slowly perfused tissue, 30 mg/kg"}, "[14]": {"conditions": "slowly perfused tissue, 60 mg/kg"}, "[15]": {"conditions": "slowly perfused tissue, 90 mg/kg"}}, "note": "Read-outs that look alike come from different tables or passages of the source. Marks after values point to notes of the source that are not given here.", "data": [{"smiles": "Cc1ncc2n1-c1ccc(Cl)cc1C(c1ccccc1F)=NC2", "note": "[midazolam]", "values": [{"measurement": "microsomal intrinsic clearance", "setting": "CYP3A; human liver", "result": 15800, "unit": "mL/min"}, {"measurement": "microsomal intrinsic clearance", "setting": "CYP3A; human small intestine", "result": 213.7, "unit": "mL/min"}, {"measurement": "small intestine microsomal intrinsic clearance as percent of liver", "setting": "CYP3A; human", "result": 1.35, "unit": "%"}]}, {"smiles": "CS(=O)(=O)CCNCc1ccc(-c2ccc3ncnc(Nc4ccc(OCc5cccc(F)c5)c(Cl)c4)c3c2)o1", "note": "[lapatinib, N-{3-chloro-4-[(3-fluorobenzyl)oxy]phenyl}-6-[5-({[2-(methylsulfonyl)ethyl]amino}methyl)-2-furyl]-4-quinazolinamine]", "values": [{"measurement": "central nervous system (CNS) penetration", "setting": "[1]", "result": "poor central nervous system (CNS) penetration"}, {"measurement": "Metabolism rate constant Intestine", "setting": "[2]; calculated as 2 % of liver metabolism", "result": "2.5 ^e h^−1"}, {"measurement": "Absorption rate constant Lumen → Intestine", "setting": "[2]; [11]", "result": "0.237 (2) h^−1"}, {"measurement": "Metabolism rate constant Liver", "setting": "[2]; [11]", "result": "127 (13) h^−1"}, {"measurement": "Partition coefficient Brain:plasma", "setting": "[2]; [12]", "result": "10 (19) Ratio"}, {"measurement": "Partition coefficient Intestine:plasma", "setting": "[2]; [12]", "result": "531 (31) Ratio"}, {"measurement": "Partition coefficient Kidney:plasma", "setting": "[2]; [12]", "result": "1,064 (18) Ratio"}, {"measurement": "Partition coefficient Liver:plasma", "setting": "[2]; [12]", "result": "12 (20) Ratio"}, {"measurement": "Partition coefficient Lung:plasma", "setting": "[2]; [12]", "result": "1,643 (19) Ratio"}, {"measurement": "Partition coefficient Slowly perfused:plasma", "setting": "[2]; [12]", "result": "65 (20) Ratio"}, {"measurement": "CNS antitumor activity", "setting": "[3]", "result": "modest CNS antitumor activity"}, {"measurement": "Partition coefficient Brain:plasma", "setting": "[4]; human PBPK model parameter", "result": 10, "unit": "Ratio"}, {"measurement": "Partition coefficient Intestine:plasma", "setting": "[4]; human PBPK model parameter", "result": 531, "unit": "Ratio"}, {"measurement": "Partition coefficient Kidney:plasma", "setting": "[4]; human PBPK model parameter", "result": "1,064 Ratio"}, {"measurement": "Partition coefficient Liver:plasma", "setting": "[4]; human PBPK model parameter", "result": 12, "unit": "Ratio"}, {"measurement": "Partition coefficient Lung:plasma", "setting": "[4]; human PBPK model parameter", "result": "1,643 Ratio"}, {"measurement": "Partition coefficient Slowly perfused:plasma", "setting": "[4]; human PBPK model parameter", "result": 65, "unit": "Ratio"}, {"measurement": "Metabolism rate constant Intestine", "setting": "[4]; human, calculated as 1.3 % of liver metabolism", "result": "0.975 ^f h^−1"}, {"measurement": "Observed Tmax", "setting": "[5]; 25 mg multiple dose, healthy, fasted, median (range)", "result": "2.7 (2.5–4.0) ^e h"}, {"measurement": "Observed Tmax", "setting": "[5]; 100 mg multiple dose, healthy, fasted, median (range)", "result": "3.0 (2.0–6.0) ^e h"}, {"measurement": "Observed Tmax", "setting": "[5]; 175 mg single dose, healthy, fasted, median (range)", "result": "3.0 (2.0–4.0) ^f h"}, {"measurement": "Observed Tmax", "setting": "[5]; 1,200 mg multiple dose, cancer, fasted, median (95 % CI)", "result": "3.6 (3.0–7.9) ^f h"}, {"measurement": "Observed Tmax", "setting": "[5]; 1,200 mg single dose, cancer, fasted, median (95 % CI)", "result": "3.5 (2.1–6.0) ^g h"}, {"measurement": "Observed Tmax", "setting": "[5]; 1,250 mg multiple dose, cancer, fasted, median (range)", "result": "3.0 (1.5–8.0) ^f h"}, {"measurement": "Observed Tmax", "setting": "[5]; 1,250 mg multiple dose, cancer, not fasted, median (range)", "result": "3.0 (2.6–8.0) ^f h"}, {"measurement": "Observed Tmax", "setting": "[5]; 1,500 mg multiple dose, cancer, fasted, median (range)", "result": "3.0 (0.0–12.2) ^f h"}, {"measurement": "Observed Tmax", "setting": "[5]; 1,500 mg multiple dose, cancer, not fasted, median (range)", "result": "3.4 (0.0–6.0) ^f h"}, {"measurement": "Observed Tmax", "setting": "[5]; 1,600 mg multiple dose, cancer, fasted, median (95 % CI)", "result": "5.1 (0.9–8.0) ^g h"}, {"measurement": "Observed Tmax", "setting": "[5]; 1,800 mg multiple dose, cancer, fasted, median (95 % CI)", "result": "3.9 (3.0–7.9) ^g h"}, {"measurement": "Observed Tmax", "setting": "[5]; 1,800 mg single dose, cancer, fasted, median (95 % CI)", "result": "3.9 (3.0–8.0) ^g h"}, {"measurement": "AUC(0-t)", "setting": "[6]", "result": 2.7, "unit": "µM·h"}, {"measurement": "half-life", "setting": "[6]", "result": 9.5, "unit": "h"}, {"measurement": "burden of metastatic breast cancer cells in the brain", "setting": "[7]", "result": "reduce the burden of metastatic breast cancer cells in the brains of mice"}, {"measurement": "bound to albumin and alpha-1 acid glycoprotein", "setting": "[8]", "result": "> 99", "unit": "%"}, {"measurement": "Percent unbound", "setting": "[8]; plasma, value set in PBPK model", "result": 1, "unit": "%"}, {"measurement": "unbound fraction of drug in the plasma", "setting": "[8]; value set in PBPK model", "result": 0.01}, {"measurement": "AUC(0-t)", "setting": "[9]; brain, 30 mg/kg", "result": 0.441, "unit": "µM·h"}, {"measurement": "AUC(0-t)", "setting": "[9]; brain, 60 mg/kg", "result": 1.31, "unit": "µM·h"}, {"measurement": "half-life", "setting": "[9]; brain, 60 mg/kg", "result": 3.12, "unit": "h"}, {"measurement": "AUC(0-t)", "setting": "[9]; brain, 90 mg/kg", "result": 2.26, "unit": "µM·h"}, {"measurement": "half-life", "setting": "[9]; brain, 90 mg/kg", "result": 1.76, "unit": "h"}, {"measurement": "AUC(0-t)", "setting": "[9]; heart, 30 mg/kg", "result": 7.16, "unit": "µM·h"}, {"measurement": "half-life", "setting": "[9]; heart, 30 mg/kg", "result": 2.59, "unit": "h"}, {"measurement": "AUC(0-t)", "setting": "[9]; heart, 60 mg/kg", "result": 26.5, "unit": "µM·h"}, {"measurement": "half-life", "setting": "[9]; heart, 60 mg/kg", "result": 3.05, "unit": "h"}, {"measurement": "AUC(0-t)", "setting": "[9]; heart, 90 mg/kg", "result": 55.2, "unit": "µM·h"}, {"measurement": "half-life", "setting": "[9]; heart, 90 mg/kg", "result": 2.32, "unit": "h"}, {"measurement": "AUC(0-t)", "setting": "[9]; intestine, 30 mg/kg", "result": 79.9, "unit": "µM·h"}, {"measurement": "half-life", "setting": "[9]; intestine, 30 mg/kg", "result": 2.79, "unit": "h"}, {"measurement": "AUC(0-t)", "setting": "[9]; intestine, 60 mg/kg", "result": 235, "unit": "µM·h"}, {"measurement": "half-life", "setting": "[9]; intestine, 60 mg/kg", "result": 3.05, "unit": "h"}, {"measurement": "AUC(0-t)", "setting": "[9]; intestine, 90 mg/kg", "result": 260, "unit": "µM·h"}, {"measurement": "half-life", "setting": "[9]; intestine, 90 mg/kg", "result": 2.55, "unit": "h"}, {"measurement": "AUC(0-t)", "setting": "[9]; kidney, 30 mg/kg", "result": 50.4, "unit": "µM·h"}, {"measurement": "half-life", "setting": "[9]; kidney, 30 mg/kg", "result": 2.53, "unit": "h"}, {"measurement": "AUC(0-t)", "setting": "[9]; kidney, 60 mg/kg", "result": 138, "unit": "µM·h"}, {"measurement": "half-life", "setting": "[9]; kidney, 60 mg/kg", "result": 3.57, "unit": "h"}, {"measurement": "AUC(0-t)", "setting": "[9]; kidney, 90 mg/kg", "result": 227, "unit": "µM·h"}, {"measurement": "half-life", "setting": "[9]; kidney, 90 mg/kg", "result": 2.51, "unit": "h"}, {"measurement": "AUC(0-t)", "setting": "[9]; liver, 30 mg/kg", "result": 84.9, "unit": "µM·h"}, {"measurement": "half-life", "setting": "[9]; liver, 30 mg/kg", "result": 2.48, "unit": "h"}, {"measurement": "half-life", "setting": "[9]; liver, 60 mg/kg", "result": 2.75, "unit": "h"}, {"measurement": "AUC(0-t)", "setting": "[9]; liver, 90 mg/kg", "result": 261, "unit": "µM·h"}, {"measurement": "half-life", "setting": "[9]; liver, 90 mg/kg", "result": 1.91, "unit": "h"}, {"measurement": "AUC(0-t)", "setting": "[9]; lung, 30 mg/kg", "result": 92.4, "unit": "µM·h"}, {"measurement": "half-life", "setting": "[9]; lung, 30 mg/kg", "result": 2.39, "unit": "h"}, {"measurement": "half-life", "setting": "[9]; lung, 60 mg/kg", "result": 3.04, "unit": "h"}, {"measurement": "AUC(0-t)", "setting": "[9]; lung, 90 mg/kg", "result": 623, "unit": "µM·h"}, {"measurement": "half-life", "setting": "[9]; lung, 90 mg/kg", "result": 1.72, "unit": "h"}, {"measurement": "AUC(0-t)", "setting": "[9]; plasma, 30 mg/kg", "result": 12, "unit": "µM·h"}, {"measurement": "half-life", "setting": "[9]; plasma, 30 mg/kg", "result": 2.73, "unit": "h"}, {"measurement": "AUC(0-t)", "setting": "[9]; plasma, 60 mg/kg", "result": 24.1, "unit": "µM·h"}, {"measurement": "half-life", "setting": "[9]; plasma, 60 mg/kg", "result": 3.42, "unit": "h"}, {"measurement": "AUC(0-t)", "setting": "[9]; plasma, 90 mg/kg", "result": 48.2, "unit": "µM·h"}, {"measurement": "half-life", "setting": "[9]; plasma, 90 mg/kg", "result": 2.36, "unit": "h"}, {"measurement": "AUC(0-t)", "setting": "[9]; [13]", "result": 2.74, "unit": "µM·h"}, {"measurement": "half-life", "setting": "[9]; [13]", "result": 3.88, "unit": "h"}, {"measurement": "AUC(0-t)", "setting": "[9]; [14]", "result": 9.52, "unit": "µM·h"}, {"measurement": "half-life", "setting": "[9]; [14]", "result": 2.57, "unit": "h"}, {"measurement": "AUC(0-t)", "setting": "[9]; [15]", "result": 18.9, "unit": "µM·h"}, {"measurement": "half-life", "setting": "[9]; [15]", "result": 1.55, "unit": "h"}, {"measurement": "dose linearity of pharmacokinetics", "setting": "[9]; all tissues, 30–90 mg/kg dose range, dose-dependent increase in AUC0–16 h and constant CL", "result": "linear pharmacokinetics"}, {"measurement": "adverse reactions observed in clinical trials", "setting": "[10]", "result": "decreased left ventricular ejection fraction, QT prolongation, hepatotoxicity, diarrhea and interstitial lung disease/pneumonitis"}]}]}
